Source: patent US9474277B2, “Pyrazole compound and pesticidal mixtures comprising a pyrazole compound” (BASF SE, priority 2012, dated 2016)
Like-named read-outs stand apart in the source and are kept apart here.

What was measured:
[1] = tested on: Rice Plant Hopper (Nilaparvata lugens); experiment: B.7 Rice plant hopper test on sprayed rice seedlings; format: in vivo; conditions: 500 ppm, after 72 hours
Method: B.7 Rice Plant Hopper (Nilaparvata lugens)
Rice seedlings were cleaned and washed 24 hours before spraying. The active compounds were formulated in 50:50 acetone: water and 0.1% vol/vol surfactant (EL 620) was added. Potted rice seedlings were sprayed with 5 ml test solution, air dried, placed in cages and inoculated with 10 adults. Treated rice plants were kept at 28-29° C. and relative humidity of 50-60%. Percent mortality was recorded after 72 hours.

[2] = tested on: Rice Green Leafhopper (Nephotettix virescens); experiment: B.9 Rice green leafhopper test on sprayed rice seedlings; format: in vivo; conditions: 500 ppm, after 72 hours
Method: B.9 Rice Green Leafhopper (Nephotettix virescens)
Rice seedlings were cleaned and washed 24 hours before spraying. The active compounds were formulated in 50:50 acetone: water, and 0.1% vol/vol surfactant (EL 620) was added. Potted rice seedlings were sprayed with 5 ml test solution, air dried, placed in cages and inoculated with 10 adults. Treated rice plants were kept at 28-29° C. and relative humidity of 50-60%. Percent mortality was recorded after 72 hours.

[3] = tested on: Greenbug Aphid, Schizaphis graminum; experiment: Test 13 - Activity against greenbug aphid, wheat seed treatment; format: in vivo; conditions: single active, aphids counted 4 DAI
Method: Test 13—Activity Against Greenbug Aphid, Schizaphis graminum: Wheat seed treatment
Technical material was dissolved in acetone at sub-lethal doses. 50 μL of solution was added to a 20-ml scintillation vial, 15 wheat seeds were added, and the seeds were coated by vortexing the vial for 1 minute. The seeds were allowed to dry and planted later the same day. Seeds were planted individually in a moistened, fertilized soil mixture of 1:1 North Carolina loamy sand (Sandhill soil):play sand in 40.32 cm^2 pots. Pots were arranged in a randomized complete block design in the greenhouse and top-watered daily. Plant emergence and shoot phytotoxicity were evaluated 4, 7, and 14 days after treatment (DAT). At 14 DAT (true leaf stage), each plant was infested with 10 greenbug aphids (Schizaphis graminum) of mixed stages. Plants were maintained on light carts in a randomized complete block design and bottom-watered as needed. Twelve replicates (pots) were prepared for plant emergence and five replicates were prepared for infestation. Live aphids were counted 4 DAI and the mean percent population reduction relative to the solvent blank control was calculated.

Puccinia recondita = experiment: Test 11 - Control of brown rust on wheat, seed treatment; format: in vivo; conditions: single active, untreated 90% disease
Method: Test 11—Control of Brown Rust on Wheat Caused by Puadnia recondita
Seeds of wheat were treated in a treater as standard equipment. The products and concentrations are listed below. At the same day the plants were seeded in pots. 14 days later at 19° C. and 70% humidity the plants were inoculated with spores of Puccinia recondita. To ensure the success the artificial inoculation, the plants were transferred to a humid chamber without light and a relative humidity of 95 to 99% and 20 to 24° C. for 24 h. Then the trial plants were cultivated for 6 days in a greenhouse chamber at 20-24° C. and a relative humidity between 65 and 70%. The extent of fungal attack on the leaves was visually assessed as % diseased leaf area.

[4] = tested on: Blumeria graminis f. sp. tritici; experiment: Test 12 - Control of powdery mildew on wheat, seed treatment; format: in vivo; conditions: single active, untreated 82% disease
Method: Test 12—Control of Powdery Mildew on Wheat Caused by Blumeria graminis f. sp. tritici
Seeds of wheat were treated in a treater as standard equipment. The products and concentrations are listed below. At the same day the plants were seeded in pots. 14 days later at 19° C. and 70% humidity the plants were inoculated with spores of Blumeria graminis f. sp. tritici (=syn. Erysiphe garminis f. sp. tritici) by shaking heavily infestated stock plants over the treated pots. After cultivation in the greenhouse for 7 days at 22-26° C. and a relative humidity between 60 to 90% the extent of fungal attack on the leaves was visually assessed as % diseased leaf area.

Rhizoctonia solani = experiment: Test 10 - Control of Rhizoctonia solani, corn seed treatment, plant height; format: in vivo; conditions: single active compound, 14 days
Method: Test 10—Control of Rhizoctonia solani
The compounds were dissolved in Acetone. Seeds of com were treated in a treater as standard equipment. The products and concentrations are listed below. After the treatment the seeds were sown in pots, and rye seeds (infected with Rhizoctonia solani) were placed next to the seeds (1 seed per corn seed).
After cultivation in the greenhouse for 14 days at 20° C. and a relative humidity of 70% the plant height of the plants were measured.

Altemaria solani = conditions: single active compound, 7 days after inoculation

Structure (SMILES): CCN(C(=O)c1cnn(C2CC3(C2)OCCO3)c1C)c1ccnnc1 [Compound C-15]
- mortality in comparison with untreated controls [1]: 75%

Structure (SMILES): CCN(C(=O)c1cnn(C(C)C2CC23CC3)c1C)c1ccnnc1 (stereo not shown) [Compound C-26]
- mortality in comparison with untreated controls [2]: at least 75%

Structure (SMILES): CCN(C(=O)c1cnn(C(C)C(C)C)c1C)c1ccnnc1 (stereo not shown) [Compound I-674]
- Observed efficacy (%) ([3]; table with fungicides F.1 to F.11, 33.7 g a.i./100 kg seeds): 21%
- Observed efficacy (%) ([3]; table with insecticides A.1 to A.17, 33.7 g a.i./100 kg seeds): 28%
- Observed efficacy (%) (Puccinia recondita; 250 g a.i./100 kg seeds): 0%
- Observed efficacy (%) ([4]; 4 g a.i./100 kg seeds): 9%
- Observed efficacy (%) ([4]; 250 g a.i./100 kg seeds): 21%
- Observed efficacy (%) (Rhizoctonia solani; 63 g a.i./100 kg seeds): 5%
- Observed efficacy (Altemaria solani; 63 ppm): 1%

Structure (SMILES): CCN(C(=O)c1cnn(C(C)C(F)F)c1C)c1ccnnc1 (stereo not shown) [Compound I-680]
- Observed efficacy (%) ([3]; table with fungicides F.1 to F.11, 2.9 g a.i./100 kg seeds): 7%
- Observed efficacy (%) ([3]; table with insecticides A.1 to A.17, 2.9 g a.i./100 kg seeds): 23%
- Observed efficacy (%) (Puccinia recondita; 250 g a.i./100 kg seeds): 0%
- Observed efficacy (%) ([4]; 250 g a.i./100 kg seeds): 15%
- Observed efficacy (%) (Rhizoctonia solani; 63 g a.i./100 kg seeds): 0%
- Observed efficacy (Altemaria solani; 63 ppm): 3%

Structure (SMILES): CCN(C(=O)c1cnn(C(C)C2(C#N)CC2)c1C)c1ccnnc1 (stereo not shown) [Compound I-698]
- Observed efficacy (%) ([3]; table with fungicides F.1 to F.11, 150 g a.i./100 kg seeds): 51%
- Observed efficacy (%) ([3]; table with insecticides A.1 to A.17, 150 g a.i./100 kg seeds): 74%
- Observed efficacy (%) (Puccinia recondita; 63 g a.i./100 kg seeds): 4%
- Observed efficacy (%) ([4]; 250 g a.i./100 kg seeds): 15%
- Observed efficacy (%) (Rhizoctonia solani; 250 g a.i./100 kg seeds): 3%
- Observed efficacy (Altemaria solani; 1 ppm): 7%
- Observed efficacy (Altemaria solani; 63 ppm): 3%

Structure (SMILES): N#Cc1c[nH]cc1-c1cccc2c1OC(F)(F)O2 [Fludioxonil, 4-(2,2-difluorobenzo[1,3]dioxol-4-yl)-1H-pyrrole-3-carbonitrile, reference compound]
- Observed efficacy (Altemaria solani; 0.063 ppm): 26%

Structure (SMILES): Cn1cc(C(=O)Nc2ccccc2-c2cc(F)c(F)c(F)c2)c(C(F)F)n1 [Fluxapyroxad, reference compound]
- Observed efficacy (%) ([3]; table with fungicides F.1 to F.11, 20 g a.i./100 kg seeds): 0%
- Observed efficacy (%) (Puccinia recondita; 1 g a.i./100 kg seeds): 16%
- Observed efficacy (%) (Rhizoctonia solani; 4 g a.i./100 kg seeds): 74%

Structure (SMILES): COCC(=O)N(c1c(C)cccc1C)[C@H](C)C(=O)OC [Mefenoxam, reference compound]
- Observed efficacy (%) ([3]; table with fungicides F.1 to F.11, 15 g a.i./100 kg seeds): 6%
- Observed efficacy (%) ([4]; 4 g a.i./100 kg seeds): 0%
- Observed efficacy (%) (Rhizoctonia solani; 63 g a.i./100 kg seeds): 0%

Structure (SMILES): COC(=O)N(OC)c1ccccc1COc1ccn(-c2ccc(Cl)cc2)n1 [Pyraclostrobin, methyl N-{2-[1-(4-chlorophenyl)-1H-pyrazol-3-yloxymethyl]phenyl}(N-methoxy)carbamate, reference compound]
- Observed efficacy (%) (Rhizoctonia solani; 63 g a.i./100 kg seeds): 49%
- Observed efficacy (Altemaria solani; 0.016 ppm): 16%

Structure (SMILES): c1ccc2[nH]c(-c3cscn3)nc2c1 [Thiabendazol]
- Observed efficacy (%) ([4]; 250 g a.i./100 kg seeds): 2%

Structure (SMILES): CC1(C)CC/C(=C\c2ccc(Cl)cc2)C1(O)Cn1cncn1 (stereo not shown) [Triticonazol, (5E)-5-[(4-chlorophenyl)methylene]-2,2-dimethyl-1-(1H-1,2,4-triazol-1-ylmethyl)cyclopentanol, reference compound]
- Observed efficacy (%) (Puccinia recondita; 16 g a.i./100 kg seeds): 49%
- Observed efficacy (%) ([4]; 16 g a.i./100 kg seeds): 60%
- Observed efficacy (%) (Rhizoctonia solani; 16 g a.i./100 kg seeds): 20%
- Observed efficacy (Altemaria solani; 0.063 ppm): 27%

Structure (SMILES): CNC(=O)c1cc(Cl)cc(C)c1NC(=O)c1cc(Br)nn1-c1ncccc1Cl [chloranthraniliprole]
- Observed efficacy (%) ([3]; table with insecticides A.1 to A.17, 75 g a.i./100 kg seeds): 30%
